According to PMC3315157 (Biochemistry, 2012):
Where “and” joins values, the source holds several entries; their conditions need not be identical. Equal entries are not always repeated. Where two headings read alike, the source gives them in different places.

How the values were obtained:
[1] = biological target: T1, Torpedo nAChR (Tetronarce californica, UniProt P02710+P02712+P02714+P02718); assay: [125I]-SADU-3-72 competition binding assay
[2] = test system: α1β1εδ (adult mouse muscle-type) nAChRs; settings: read-out: IC50, impaired channel opening; binding to the resting nAChR; HEK-293 cells; cited from earlier work
[3] = biological target: T1, Torpedo nAChR; type: cell-based
[4] = biological target: T1, Torpedo nAChR; assay: biochemical; type: binding; settings: for reduction of agonist-enhanced [125I]SADU-3-72 photolabeling within αV8-20K: 130 μM bupropion (separate experiment) or TCP
[5] = desensitized state (Carb), TCP 130 μM, native nAChR-rich membranes, n=1
[6] = resting state (+α-BgTx), tetracaine 130 μM, native nAChR-rich membranes, n=1

T1 sequence (P02710 25-461): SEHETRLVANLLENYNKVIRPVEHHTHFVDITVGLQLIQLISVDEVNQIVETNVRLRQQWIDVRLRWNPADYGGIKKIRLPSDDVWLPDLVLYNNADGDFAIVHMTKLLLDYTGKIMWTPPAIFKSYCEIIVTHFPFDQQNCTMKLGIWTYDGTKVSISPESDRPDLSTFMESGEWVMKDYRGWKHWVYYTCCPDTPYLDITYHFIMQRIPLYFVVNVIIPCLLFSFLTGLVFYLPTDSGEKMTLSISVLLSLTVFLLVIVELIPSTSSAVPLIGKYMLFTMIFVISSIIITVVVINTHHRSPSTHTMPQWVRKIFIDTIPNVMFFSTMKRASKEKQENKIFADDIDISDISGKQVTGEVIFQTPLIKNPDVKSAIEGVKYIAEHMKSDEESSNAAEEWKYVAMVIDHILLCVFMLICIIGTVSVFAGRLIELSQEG
T1 sequence (P02712 25-493): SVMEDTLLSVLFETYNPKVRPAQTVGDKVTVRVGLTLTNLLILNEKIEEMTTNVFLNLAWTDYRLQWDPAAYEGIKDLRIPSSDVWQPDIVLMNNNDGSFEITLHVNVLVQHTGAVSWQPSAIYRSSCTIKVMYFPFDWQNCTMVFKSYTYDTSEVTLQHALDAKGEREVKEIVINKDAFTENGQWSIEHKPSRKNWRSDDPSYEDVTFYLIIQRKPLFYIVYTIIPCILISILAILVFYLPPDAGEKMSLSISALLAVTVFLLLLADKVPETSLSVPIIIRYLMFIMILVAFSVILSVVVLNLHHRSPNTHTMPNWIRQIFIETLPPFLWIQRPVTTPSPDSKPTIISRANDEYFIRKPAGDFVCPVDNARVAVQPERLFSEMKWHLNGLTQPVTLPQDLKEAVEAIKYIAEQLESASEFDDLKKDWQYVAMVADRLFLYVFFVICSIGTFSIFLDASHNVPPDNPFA
T1 sequence (P02714 18-506): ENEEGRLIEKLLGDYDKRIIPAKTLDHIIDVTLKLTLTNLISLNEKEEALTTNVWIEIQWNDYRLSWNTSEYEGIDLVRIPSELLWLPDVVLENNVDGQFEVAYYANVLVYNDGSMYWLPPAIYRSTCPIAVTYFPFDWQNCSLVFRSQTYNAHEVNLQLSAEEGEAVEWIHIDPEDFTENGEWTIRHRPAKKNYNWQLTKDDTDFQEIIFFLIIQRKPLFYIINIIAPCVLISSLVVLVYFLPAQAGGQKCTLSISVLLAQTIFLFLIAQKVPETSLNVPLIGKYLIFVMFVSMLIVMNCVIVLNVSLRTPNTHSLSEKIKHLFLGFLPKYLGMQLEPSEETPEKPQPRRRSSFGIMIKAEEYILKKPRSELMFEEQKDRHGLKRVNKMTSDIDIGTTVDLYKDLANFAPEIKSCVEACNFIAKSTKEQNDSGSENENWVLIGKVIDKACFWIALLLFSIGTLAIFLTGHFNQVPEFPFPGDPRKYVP
T1 sequence (P02718 22-522): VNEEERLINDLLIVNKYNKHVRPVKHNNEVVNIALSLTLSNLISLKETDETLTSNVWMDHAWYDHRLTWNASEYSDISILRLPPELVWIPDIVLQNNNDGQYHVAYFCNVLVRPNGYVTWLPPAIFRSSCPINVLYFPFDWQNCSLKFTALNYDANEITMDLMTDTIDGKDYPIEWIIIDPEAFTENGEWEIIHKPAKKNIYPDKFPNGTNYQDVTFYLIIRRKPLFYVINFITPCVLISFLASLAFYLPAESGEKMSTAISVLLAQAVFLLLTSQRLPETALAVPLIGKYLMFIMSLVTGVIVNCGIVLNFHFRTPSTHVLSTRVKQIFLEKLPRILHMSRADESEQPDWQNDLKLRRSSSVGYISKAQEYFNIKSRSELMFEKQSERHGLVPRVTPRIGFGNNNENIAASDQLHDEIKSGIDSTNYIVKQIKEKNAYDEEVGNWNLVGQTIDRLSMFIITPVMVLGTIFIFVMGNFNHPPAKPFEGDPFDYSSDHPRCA

CC(NC(C)(C)C)C(=O)c1ccc(N=[N+]=[N-])c(I)c1 (racemic) [SADU-3-72, (±)-2-(N-tert-butylamino)-3′-[^125I]-iodo-4′-azidopropiophenone]
IC50 ([1]; read-out: IC50, inhibition of [125I]SADU-3-72 binding, affinity-purified, lipid-reconstituted nAChR, absence of Carb (resting state)): 2.3 ± 0.7 µM

CC(NC(C)(C)C)C(=O)c1cccc(Cl)c1 (racemic) [bupropion, (±)-2-(tert-butylamino)-1-(3-chlorophenyl) propan-1-one]
IC50 [2]: 0.4 µM | IC50 [3]: 0.34 µM and 0.3 µM | Hill coefficient nH of inhibition of ACh-induced currents ([3]; co-applied with 50 μM ACh, n=7 oocytes): 0.98 ± 0.14 | IC50 ([4]; IC50, inhibition of δ subunit [125I]SADU-3-72 photolabeling, presence of Carb (desensitized state)): 2.1 µM and 2 µM | reduction of agonist-enhanced [125I]SADU-3-72 photolabeling within αV8-20K ([4]; desensitized state (Carb)): 70% | IC50 ([1]; IC50, inhibition of [125I]SADU-3-72 binding, native nAChR-rich membranes, desensitized state (400 μM Carb)): 1.2 µM and 1 µM | fold higher affinity in the desensitized than in the resting state ([1]; from inhibition of [125I]SADU-3-72 binding / photoincorporation): three-fold

CC(=O)OCC[N+](C)(C)C [ACh, Acetylcholine]
Hill coefficient nH, ACh dose-response curve ([3]; n=1): 1.5

c1csc(C2(N3CCCCC3)CCCCC2)c1 [TCP, 1-(1-(2-Thienyl)cyclohexyl) piperidine (tenocyclidine)]
effect on [125I]SADU-3-72 labeling of δLeu265 (M2-9) ([4]; desensitized state (400 μM Carb), 130 μM TCP, preparative photolabeling): eliminated | reduction of agonist-enhanced [125I]SADU-3-72 photolabeling within αV8-20K ([4]; desensitized state (Carb)): not inhibited | effect on [125I]SADU-3-72 β subunit labeling [4, 5]: unchanged | increase of [125I]SADU-3-72 photolabeling in α-subunit [4, 5]: ~ 15% | effect on [125I]SADU-3-72 labeling in βV8-22/23K, γV8-24K and δV8-14K fragments ([4]; desensitized state (Carb), TCP (140 μM in Figure 5 legend)): further inhibited labeling | inhibition at 130 µM ([4]; read-out: inhibition of [125I]SADU-3-72 photolabeling in γ-subunit): ~35% | inhibition at 130 µM ([4]; read-out: inhibition of [125I]SADU-3-72 photolabeling in δ-subunit): ~35%

CCCCNc1ccc(C(=O)OCCN(C)C)cc1 [tetracaine]
inhibition at 130 µM ([4]; read-out: inhibition of [125I]SADU-3-72 labeling within αV8-20K fragment): 49% | inhibition at 130 µM ([4]; read-out: inhibition of [125I]SADU-3-72 labeling within βV8-22/23K fragment): 76% | inhibition at 130 µM ([4]; read-out: inhibition of [125I]SADU-3-72 labeling within γV8-24K fragment): 79% | inhibition at 130 µM ([4]; read-out: inhibition of [125I]SADU-3-72 labeling within δV8-14K fragment): 88% | reduction of [125I]SADU-3-72 photolabeling in α-subunit [4, 6]: < 5% | reduction of [125I]SADU-3-72 photolabeling in β-subunit [4, 6]: 55% | reduction of [125I]SADU-3-72 photolabeling in γ-subunit [4, 6]: 51% | reduction of [125I]SADU-3-72 photolabeling in δ-subunit [4, 6]: 73% | inhibition of [125I]-SADU-3-72 photoincorporation within subunit fragments containing the M2 segments ([4]; resting state, αV8-20, βV8-22, γV8-24 and δV8-14): 50–90%
